Assay results published in patent publication US20090270390A1, “PYRIMIDINE DERIVATIVES” (AstraZeneca, priority 2006, published 2009).

How the values were obtained:
[1] = target: T1, p110α Type Ia human PI3K (Homo sapiens, UniProt P42336); assay: In vitro PI3K enzyme assay (AlphaScreen), Test (a); type: biochemical; conditions: read-out: IC50 versus p110α Type Ia human PI3K
T1 construct: full length DNA of each of the p110α, p110β and p110δ Type Ia human PI3K p110 isoforms; 6-His; made in house; Grp1 PH domain made in E. coli
T1 sequence (P42336 whole entry, the tested form may be a part, canonical isoform): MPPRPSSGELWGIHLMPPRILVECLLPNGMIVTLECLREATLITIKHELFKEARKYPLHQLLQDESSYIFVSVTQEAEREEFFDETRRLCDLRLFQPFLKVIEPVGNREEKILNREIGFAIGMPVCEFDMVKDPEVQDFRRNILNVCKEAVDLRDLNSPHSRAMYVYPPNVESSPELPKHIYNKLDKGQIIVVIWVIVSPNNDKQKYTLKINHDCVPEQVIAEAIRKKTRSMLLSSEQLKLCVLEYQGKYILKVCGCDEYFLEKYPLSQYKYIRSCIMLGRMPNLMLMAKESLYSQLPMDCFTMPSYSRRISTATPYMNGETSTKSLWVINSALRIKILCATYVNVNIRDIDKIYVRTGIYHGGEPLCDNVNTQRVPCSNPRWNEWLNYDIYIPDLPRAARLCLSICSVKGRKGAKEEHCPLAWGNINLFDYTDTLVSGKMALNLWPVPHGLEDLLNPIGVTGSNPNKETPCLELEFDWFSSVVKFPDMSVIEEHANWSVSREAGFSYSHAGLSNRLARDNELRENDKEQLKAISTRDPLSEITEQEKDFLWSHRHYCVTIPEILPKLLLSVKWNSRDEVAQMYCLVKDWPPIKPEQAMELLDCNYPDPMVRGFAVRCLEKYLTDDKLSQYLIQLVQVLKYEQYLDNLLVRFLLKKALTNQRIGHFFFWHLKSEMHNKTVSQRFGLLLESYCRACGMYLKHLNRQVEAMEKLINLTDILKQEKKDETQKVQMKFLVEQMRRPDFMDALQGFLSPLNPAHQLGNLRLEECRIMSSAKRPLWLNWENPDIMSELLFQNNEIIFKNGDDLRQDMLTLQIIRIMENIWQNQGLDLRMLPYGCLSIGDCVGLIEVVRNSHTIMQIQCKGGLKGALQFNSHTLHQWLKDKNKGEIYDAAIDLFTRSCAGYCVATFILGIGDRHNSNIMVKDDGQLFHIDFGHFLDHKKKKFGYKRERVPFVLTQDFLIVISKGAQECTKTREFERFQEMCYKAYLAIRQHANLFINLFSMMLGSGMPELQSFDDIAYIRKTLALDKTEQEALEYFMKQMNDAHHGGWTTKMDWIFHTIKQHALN
T1 sequence (P27986 whole entry partner, the tested form may be a part, canonical isoform): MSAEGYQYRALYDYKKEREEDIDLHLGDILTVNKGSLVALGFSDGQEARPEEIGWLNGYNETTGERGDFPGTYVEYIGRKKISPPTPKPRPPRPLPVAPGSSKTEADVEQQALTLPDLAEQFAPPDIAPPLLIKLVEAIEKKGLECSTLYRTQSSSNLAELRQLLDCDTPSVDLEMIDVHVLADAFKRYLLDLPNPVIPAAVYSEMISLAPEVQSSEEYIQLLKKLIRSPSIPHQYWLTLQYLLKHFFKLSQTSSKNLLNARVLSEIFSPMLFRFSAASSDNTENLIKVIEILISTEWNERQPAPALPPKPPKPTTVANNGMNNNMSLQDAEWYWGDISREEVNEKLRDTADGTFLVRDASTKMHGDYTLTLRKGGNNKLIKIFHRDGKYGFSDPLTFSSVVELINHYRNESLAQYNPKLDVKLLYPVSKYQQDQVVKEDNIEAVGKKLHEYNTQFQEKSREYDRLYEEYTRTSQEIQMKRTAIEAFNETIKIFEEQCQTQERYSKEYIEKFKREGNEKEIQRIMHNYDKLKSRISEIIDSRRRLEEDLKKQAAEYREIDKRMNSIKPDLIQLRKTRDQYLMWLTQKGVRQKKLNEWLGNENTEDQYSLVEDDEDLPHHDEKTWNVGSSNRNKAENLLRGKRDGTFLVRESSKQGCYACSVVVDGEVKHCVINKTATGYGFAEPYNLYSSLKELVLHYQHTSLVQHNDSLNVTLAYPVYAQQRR
From the text: The assay used AlphaScreen technology (Gray et al., Analytical Biochemistry, 2003, 313: 234-245) to determine the ability of test compounds to inhibit phosphorylation by recombinant Type I PI3K enzymes of the lipid PI(4,5)P2.
DNA fragments encoding human PI3K catalytic and regulatory subunits were isolated from cDNA libraries using standard molecular biology and PCR cloning techniques. The selected DNA fragments were used to generate baculovirus expression vectors. In particular, full length DNA of each of the p110α, p110β and p110δ Type Ia human PI3K p110 isoforms (EMBL Accession Nos. HSU79143, S67334, Y10055 for p110α, p110β and p110δ respectively) were sub-cloned into a pDEST10 vector (Invitrogen Limited, Fountain Drive, Paisley, UK). The vector is a Gateway-adapted version of Fastbac 1 containing a 6-His epitope tag. […]
Biotinylated-DiC8-PI(3,4,5)P3 (50 nM; Cell Signals Inc., Catalogue No. 107), recombinant purified GST-Grp1 PH protein (2.5 nM) and AlphaScreen Anti-GST donor and acceptor beads (100 ng; Packard Bioscience Limited, Station Road, Pangbourne, Berkshire, UK, Catalogue No. 6760603M) were added and the assay plates were left for about 5 to 20 hours at room temperature in the dark. The resultant signals arising from laser light excitation at 680 nm were read using a Packard AlphaQuest instrument. […]

[2] = tested on: phosphorylation of Serine 473 in Akt in MDA-MB-468 human breast adenocarcinoma cell line; assay: In vitro phospho-Ser473 Akt assay, Test (c); type: cell-based; conditions: MDA-MB-468 cells, read-out: IC50 (inhibition of Serine 473 phosphorylation in Akt)
Protocol: This assay determines the ability of test compounds to inhibit phosphorylation of Serine 473 in Akt as assessed using Acumen Explorer technology (TTP LabTech Limited, Royston, Herts, SG8 6EE, UK), a plate reader that can be used to rapidly quantitate features of images generated by laser-scanning.
A MDA-MB-468 human breast adenocarcinoma cell line (LGC Promochem, Teddington, Middlesex, UK, Catalogue No. HTB-132) was routinely maintained at 37° C. with 5% CO2 up to a confluency of 70-90% in DMEM containing 10% FCS and 1% L-glutamine.
For the assay, the cells were detached from the culture flask using ‘Accutase’ (Innovative Cell Technologies Inc., San Diego, Calif., USA; Catalogue No. AT104) using standard tissue culture methods and resuspended in media to give 5.5×10^4 cells per ml. Aliquots (90 μl) were seeded into each of the inner 60 wells of a black ‘Costar’ 96-well plate (Corning Inc., NY, USA; Catalogue No. 3904) to give a density of ˜5000 cells per well. Aliquots (90 μl) of culture media were placed in the outer wells to prevent edge effects. [An alternative cell handling procedure involved the maintenance of the cells in a ‘SelecT’ robotic device (The Automation Partnership, Royston, Herts SG8 5WY, UK). Cells were resuspended in media to give 5×10^4 cells per ml. Aliquots (100 μl) were seeded into the wells of a black ‘Costar’ 96-well plate.] […]

IC50 [1]: ~100 nM
IC50 [2]: ~10 nM
Structure (SMILES): NCC(=O)N1CCN(c2cc(N3CCOCC3)nc(-n3c(C(F)F)nc4ccccc43)n2)CC1 [Example 1, 2-(2-difluoromethylbenzimidazol-1-yl)-4-(4-glycylpiperazin-1-yl)-6-morpholinopyrimidine]
